Patent US9186390B2, “Methods and uses of TIE2 binding and/or activating agents” (Sunnybrook Health Sciences Center, priority 2010, dated 2015)
Entries after “also recorded” stand apart in the source; their conditions may differ.

Assays:
Tie2 receptor = biological target: T1, Tie2 receptor (Mus musculus, UniProt Q02858); assay: Tie2 activation in vivo (Tie2 immunoprecipitation from lung lysates, pY Tie2 western blot); parameters: species or system CD1 mice; conditions: for time points at which activation of Tie2 (pY Tie2) was evident: pooled lung lysates of three mice
T1 construct: from tissue; host or cells: lung of CD1 mice (in vivo dosing, lung homogenate)
Protocol: The following commercially available antibodies were used: monoclonal anti-Tie2 (Phaminogen), polyclonal anti-Tie2 (Santa Cruz Biotechnology) and monoclonal anti-pY (clone 4G10, Upstate Biotechnology). Lung lysates were prepared and immunoprecipitated in full RIPA buffer (50 mM Tris-HCl, pH 7.4, 150 mM NaCl, 1 mM PMSF, 1 mM EDTA, 5 μg/ml Aprotinin 5 μg/ml Leupeptin, 1% Triton x-100, 1% Sodium deoxycholate, 0.1% SDS). Proteins were resolved in 10% PAGE according to Laemlli and transferred to PVDF membrane for subsequent antibody probing.
Purified Vasculotide was examined for its ability to activate the Tie2 receptor tyrosine kinase in CD1 mice (FIG. 1A). Three mice per group were injected intraperitoneally (IP) with either Vasculotide (500 ng-12.5 μg) or vehicle (PBS) control. After one hour, mice were sacrificed and lung homogenates were prepared for immunoblot analysis. […] This effect is particularly evident when total protein loading is accounted for (see pan Tie2, lower panel). While this may seem somewhat paradoxical, this phenomenon has also been reported by others while investigating the effect of Ang1 on Tie2 activation (Brkovic et al. (2007) J. Leukoc. Biol. 81(4), 1093-1101), Sturn et al. (2005) Microcirculation 12(5), 393-403, Murdoch et al. (2007) J Immunol 178(11), 7405-7411, van der Geer et al. (1994) Ann. Rev. Cell Biol. 10, 251-337, Gruber et al. (1995) Blood 86(7), 2488-2493, Maliba et al. (2008) J. Leukoc. Biol. 83(2), 352-360, and Van Slyke et al. (2009) Tissue Eng. Part A 15(6), 1269-1280).
To assess the duration of Tie2 activation following Vasculotide administration, three mice per time point were injected with 2 μg intraperitoneally (I.P.) or by gavage (P.O.). Lung lysates were prepared from each of the mice at the indicated times following initial dosing (FIG. 1B). Equal quantities of protein from each group were pooled and immunoprecipitated for Tie2 to establish an average Tie2 activation for each group. Activation of Tie2 (see pY Tie2, upper panels) was evident at time points ranging from 24-72 hours in the I.P. injected mice. By 96 hours post injection, the Tie2 receptor phosphorylation had returned to basal (PBS stimulated) levels.

[1] = test system: AT derm mice (pTek-tTA:pTetOS-Tek); assay: Atopic dermatitis (AT derm) transgenic mouse model and wild-type littermates, 30-day Vasculotide treatment; format: in vivo, CD1 mice
Source text: Briefly, construction of the driver transgene, pTek-tTA, and the responder transgenes, pTetOS-Tek, pTetos-Ang1, and pTetos-Ang2 have been described previously. All transgenic lines were maintained and genotyped as previously described (Voskas et al. (2005) Am. J. Pathol. 166(3):843-855, Ward et al. (2004) Am. J. Pathol. 165(3):889-899, Bureau et al. (2006) Am. J. Physiol. Heart Circ. Physiol. 291(2):H948-965). Males were housed with a single female for 14 to 20 days and then separated into individual cages. CD1 mice (an outbred mouse line) were maintained in a barrier facility. All adult mice used in these studies were 2 to 6 months old.
Mouse skin tissue was fixed in 4% paraformaldehyde (Sigma, St. Louis, Mo.) for 16 hours at 4 degrees Celsius, and transferred to 70% ethanol. Tissues were subsequently paraffin embedded and sectioned at 4 μM on SuperFrost glass slides. Tissue slides were stained for hematoxylin and eosin using standard techniques. For immunohistochemistry, anti-E-Selectin (rat; Pharmingen, La Jolla, Calif.), anti-VCAM1 (rat; Pharmingen), anti-ICAM1 (Hamster; Pharmingen, La Jolla, Calif.), primary antibodies were detected using biotinylated secondary antibodies as described in the Vectastain Elite ABC kit (Vector Laboratories, Burlingame, Calif.). Slides were processed and counterstained with methyl green using standard techniques. Slides were analyzed and photos were processed using a Leica compound light microscope coupled to a Leica DFC300FX camera (Wetzlar, Germany). Skin tissue was taken (biopsy) at day 0, prior to initiation of treatment and at 30 days. Gross phenotypic examination was conducted and mice were photographed in a standard format using a Digital Canon Eos Rebel.
Blood was collected from all mice on day 0 (prior to treatment) and day 30 (after 30 days of treatment). On day 0, approximately 50 μl was collected via tail vein puncture into a lithium heparin micro tube. Day 30 blood was collected via cardiac puncture into a lithium heparin micro tube. Both blood samples were prepared for storage and subsequent analysis using Phosflow Lyse/Fix Buffer (BD Biosciences, Franklin Lakes, N.J.), according to manufacturers instructions. Cells were stained for IgE versus free FITC and characteristic populations of basophils and eosinophils were identified.
Normal and double transgenic (pTek-tTA:pTetOS-Tek) CD1 mice were injected intra peritoneally with either sterile PBS, pH 7.4 (vehicle) or Vasculotide (40 μg/kg) every three days for the period of 30 days. Mice were observed closely during this period for phenotypic resolution and/or any potential ill effects.
Plasma was collected in lithium/heparin microtubes from all mice following 30 days of treatment with Vasculotide or vehicle. Plasma was diluted 1:8 in sample diluent (BD Biosciences, Franklin Lakes, N.J.). A multiplex analysis of 12 different mouse cytokines was examined according to manufacturer's instructions. Analysis and cytokine/chemokine quantification was performed using the manufacturers FCAP software package (BD Biosciences, Franklin Lakes, N.J.).
Blood was collected from mice as previously described. Separated plasma was diluted 1:4 in calibrator diluent according to manufacturer's specifications (R&D Biosystems, Minneapolis, Minn. USA). All aspects of the assay were conducted according to manufacturer's directions. Quantification of plasma eotaxin concentrations was performed by linear regression analysis from assessment of defined amounts of eotaxin standard.

[2] = AT derm and wild-type mice, 30 days treatment
[3] = AT derm mice, skin and underlying muscle, 40 μg/kg every 3 days for 30 days
[4] = wild-type (or single transgenic) mice, 30 days, p=0.0027

T1 sequence (Q02858 23-1122): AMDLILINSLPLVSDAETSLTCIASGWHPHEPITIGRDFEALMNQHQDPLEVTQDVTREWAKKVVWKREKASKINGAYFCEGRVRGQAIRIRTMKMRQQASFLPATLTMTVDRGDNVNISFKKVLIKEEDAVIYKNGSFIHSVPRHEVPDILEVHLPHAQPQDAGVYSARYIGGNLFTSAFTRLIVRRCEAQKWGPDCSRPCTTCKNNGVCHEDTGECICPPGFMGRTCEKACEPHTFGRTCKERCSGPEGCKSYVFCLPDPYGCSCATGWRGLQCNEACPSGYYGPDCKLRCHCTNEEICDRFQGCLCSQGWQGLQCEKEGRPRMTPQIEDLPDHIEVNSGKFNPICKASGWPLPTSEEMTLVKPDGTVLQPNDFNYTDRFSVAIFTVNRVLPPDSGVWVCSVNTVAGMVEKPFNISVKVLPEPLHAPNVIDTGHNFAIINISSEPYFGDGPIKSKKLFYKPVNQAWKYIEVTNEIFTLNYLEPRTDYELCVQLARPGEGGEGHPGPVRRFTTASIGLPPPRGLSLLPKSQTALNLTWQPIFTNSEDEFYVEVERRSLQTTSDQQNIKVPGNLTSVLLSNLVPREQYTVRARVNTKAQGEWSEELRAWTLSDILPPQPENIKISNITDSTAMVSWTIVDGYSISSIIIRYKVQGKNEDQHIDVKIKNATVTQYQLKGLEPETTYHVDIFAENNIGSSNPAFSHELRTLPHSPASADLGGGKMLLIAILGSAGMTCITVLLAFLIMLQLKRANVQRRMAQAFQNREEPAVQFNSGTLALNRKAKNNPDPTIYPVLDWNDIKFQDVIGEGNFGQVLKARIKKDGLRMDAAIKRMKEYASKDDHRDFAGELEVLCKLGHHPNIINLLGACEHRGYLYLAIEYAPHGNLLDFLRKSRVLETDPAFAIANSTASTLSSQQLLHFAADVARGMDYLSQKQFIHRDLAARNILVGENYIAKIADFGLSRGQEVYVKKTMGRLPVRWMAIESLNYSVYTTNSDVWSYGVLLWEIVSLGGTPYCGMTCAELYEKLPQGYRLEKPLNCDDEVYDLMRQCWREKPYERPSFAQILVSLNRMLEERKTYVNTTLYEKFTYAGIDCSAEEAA

Substance: Vasculotide: Modified T7 peptide (CHHHRHSF, SEQ ID NO:2) conjugated to 10 kDa tetrameric polyethylene glycol-maleimide; Tie2 binding peptide mimetic
- time points at which activation of Tie2 (pY Tie2) was evident (Tie2 receptor; 2 μg I.P.): 24-72 hours
- time points at which activation of Tie2 (pY Tie2) was evident (Tie2 receptor; 2 μg I.P., listed as Vasc-PEG): at least 72 hours
- time by which Tie2 receptor phosphorylation had returned to basal (PBS stimulated) levels (Tie2 receptor; 2 μg I.P., post injection): 96 h
- Tie2 phosphorylation after gavage (oral availability) (Tie2 receptor; 2 μg P.O., two hours post gavage): did not yield increased activation
- Tie2 receptor-activating activity at higher doses (Tie2 receptor; I.P. doses above 500 ng up to 12.5 μg, 1 hour): reduced receptor-activating activity
- dose that activated Tie2 optimally (pY Tie2) (Tie2 receptor; I.P., 1 hour in circulation, lung homogenates, doses 500 ng-12.5 μg): 500 ng/25-30 g mouse
- body weight change during 30-day treatment ([1]; 40 μg/kg every 3 days for 30 days, vs PBS): no statistically significant alteration; also recorded: no statistically detectable alteration
- plasma eotaxin levels (ELISA) ([1]; AT Derm mice vs PBS treated AT Derm mice, p=0.0208): statistically significant decrease
- basophil numbers in peripheral blood (FACS) [1, 2]: marked reduction; also recorded: Decreased numbers
- eosinophil numbers in peripheral blood (FACS) [1, 2]: marked reduction; also recorded: Decreased numbers
- number of granulocytes in the bone marrow ([1]; AT derm and wild-type mice, treated or untreated): unchanged
- gross phenotype: erythema, micro-haemorrhages of the ears, scaly plaque formation on the tail ([1]; AT derm mice (moderate or severe), 40 μg/kg every 3 days for 30 days): complete or almost complete resolution; also recorded: Gross phenotypic improvement
- plasma IL-1β (cytometric bead array) ([1]; AT derm mice vs PBS-treated AT derm mice, 30 days, p=0.0492): reduction
- erythema after the third dose (9 days) ([1]; AT derm mice, 40 μg/kg every three days): reduction in erythema
- epidermal hyperplasia and infiltration of leukocytes (H&E staining of skin) ([1]; AT derm mice, 30 days treatment vs PBS): dramatic reduction; also recorded: marked reduction
- E-selectin expression (immunohistochemistry) [1, 3]: very low or absent levels of positive staining; also recorded: dramatic reduction
- ICAM1 expression (immunohistochemistry) [1, 3]: very low or absent levels of positive staining; also recorded: dramatic reduction
- VCAM1 expression (immunohistochemistry) [1, 3]: very low or absent levels of positive staining; also recorded: dramatic reduction
- neutrophils in peripheral blood (FACS) ([1]; control and AT-Derm mice, 30 days treatment): No effects
- plasma IL-5 (cytometric bead array) [1, 4]: statistically significant decrease
- plasma IL-13 (cytometric bead array) [1, 4]: statistically significant decrease
- plasma MIP1b (cytometric bead array) ([1]; wild-type (or single transgenic) mice, 30 days, p=0.003): statistically significant decrease
- plasma IL-9 (cytometric bead array) ([1]; wild-type (or single transgenic) mice, 30 days, p=0.0079): statistically significant decrease
- plasma MCP1 (cytometric bead array) ([1]; wild-type (or single transgenic) mice, 30 days, p=0.0116): statistically significant decrease
- plasma MIG (cytometric bead array) ([1]; wild-type (or single transgenic) mice, 30 days, p=0.0117): statistically significant decrease
- plasma TNF-α (cytometric bead array) ([1]; wild-type (or single transgenic) mice, 30 days, p=0.0309): statistically significant decrease
- plasma MIP1a (cytometric bead array) ([1]; wild-type (or single transgenic) mice, 30 days, p=0.0473): statistically significant decrease
- plasma IL-17 (cytometric bead array) ([1]; wild-type (or single transgenic) mice, 30 days, p=0.0492): statistically significant decrease
- plasma IL-12/IL-23 p40 (cytometric bead array) ([1]; wild-type (or single transgenic) mice, 30 days, p=0.0494): statistically significant decrease
- overt effects / appearance of single transgenic or wild-type littermates ([1]; wild-type or single transgenic mice, 40 μg/kg every three days): no overt effects; also recorded: indistinguishable from PBS-treated
